Columns and labels:
[1] = system: HCC1806 cells stably expressing 4UbFL; assay: 4UbFL proteasome reporter, HCC1806 cells; type: cell-based; conditions: 4 hr treatment, IVIS imager
Protocol: Data are presented as IVIS image (FIG. 8A) and bioluminescence units (FIG. 8B).
4T1 and HCC1806 cells were transfected with 4UbFL plasmid using TransIT2020 transfection reagent for a period of 48 hrs and cells were selected using G418 antibiotic from single colonies. Selected cells were seeded in a 24-well plate (50,000/well) and incubated for 18 h at 37° C. in an incubator. Next, cells were treated with compounds for the period of 4 hr and Luciferin was added (50 uL each well, 7.8 mg/mL) and imaged through an IVIS200 instrument and plotted as a bioluminescent value or fold increase to DMSO control.

HCC1806 = assay: MTT cytotoxicity assay, HCC1806; type: cell-based; conditions: HCC1806, breast, 72 hr, read-out: IC50, cell killing
Protocol: (§1) All cell lines were obtained from the American Type Culture Collection (ATCC) and cultured in the specified medium supplemented with 10% fetal bovine serum, 100 IU/mL penicillin, and 100 μg/mL streptomycin at 37° C. in a humidified 5% CO2/95% air incubator. To assess drug cytotoxicity cells were seeded at 2,500 cells/well (10,000 cells/well for MM lines and primary cells) in 100 μL medium in 96-well plate. […]
(§2) It was examined whether the RPN13 inhibitor, RA475, was cytotoxic for cancer cell lines using the MTT assay.

SUM149 = assay: MTT cytotoxicity assay, SUM149; type: cell-based; conditions: SUM149, breast, 72 hr, read-out: IC50, cell killing
Protocol: as §1, §2

4T1 = assay: MTT cytotoxicity assay, 4T1; type: cell-based; conditions: 4T1, breast (TNBC), 72 hr, read-out: IC50, cell killing
Protocol: as §1, §2

U251MG = assay: MTT cytotoxicity assay, U251MG; type: cell-based; conditions: glioblastoma multiforme, 72 hr, read-out: IC50, cell killing
Protocol: as §1, §2

[2] = Plasma stability, human EDTA plasma; type: in vitro ADME; conditions: 37° C.
Protocol: (§3) Human and mouse liver microsomes and NADPH regenerating system solutions were purchased from Corning Life Sciences (Tewsbury, MA). Human and mouse K2EDTA was purchased from BioIVT (Westbury, NY). Metabolic studies in liver microsomes (0.125 mg/mL) were conducted in 1× phosphate buffered saline (pH 7.4), NADPH-generating system, and 10 μM of RA475 in a final volume of 250 μl. An incubation mixture with and without NADPH-generating system as well as a neat solution without microsomes and NADPH-generating system were prepared. RA475 was added at the same concentration level into human and mouse EDTA plasma. All reactions were initiated with the addition of RA475. Incubations were performed in glass tubes maintained at 37° C. in a shaker bath. At 0, 30, and 60 minutes, 10 μL aliquots were sampled from the reaction mixture and 0.5 mL of acetonitrile containing internal standard (Up284) was added to each samples. Samples were vortex-mixed and underwent centrifugation for 5 min at 1430×g. A 10 μL aliquot of the supernatant was injected onto the LC-MS instrument for qualitative analysis using a temperature-controlled autosampling device operating at 5° C. Chromatographic analysis was performed using a Waters Acquity™ Ultra Performance LC. […] The mobile phase used for the chromatographic separation was composed of water (mobile phase A) and acetonitrile (mobile phase B) containing 0.1% (v/v) formic acid with a flow rate of 0.3 mL/min. The initial mobile phase composition was 80% mobile phase A and 20% mobile phase B. From 0.5 to 1 min, mobile phase B was increased linearly from 20% to 100%. From 1 to 3 min, mobile phase B was maintained at 100%. From 3.0 to 3.1 min, the gradient decreased to 20% mobile phase B and the conditions were maintained until 4.1 min to re-equilibrate the column for the next injection. The column effluent was monitored using an AB Sciex 5500 triple quadrupole mass spectrometer. The instrument was equipped with an electrospray interface, operated in a positive mode and controlled by the Analyst v1.6 software. For the stability study, the mass spectrometer was programmed to monitor the following MRM transition 408.2→366.1 for RA475 and 366.2→155.8 for UP284 (internal standard). Results were assessed qualitatively comparing the average area ratio of RA475 at 0 hr to area ratio at 30 and 60 minutes for both mouse and human liver microsomes. RA475 was not analyzed for metabolites due to the concentration of RA475 not decreasing.

[3] = Plasma stability, mouse EDTA plasma; type: in vitro ADME; conditions: 37° C.
Protocol: as §3

[4] = Microsomal stability, mouse liver microsomes; type: in vitro ADME
Protocol: as §3

HepG2 = assay: MTT cytotoxicity assay, HepG2; type: cell-based; conditions: HepG2, liver, 72 hr, read-out: IC50, cell killing
Protocol: as §1, §2

[5] = system: ES2 cells stably expressing 4UbFL; assay: In vitro 4UbFL assay, ES2 cells; type: cell-based; conditions: ES2-4UbFL cells, two-fold dilution series, 4 hr
Protocol: Sub-confluent cultures of ES2 cells stably expressing 4UbFL were seeded at 10,000 cells/well in 96-well microtiter plates. At 18 hr post transfection, cells were treated with compounds or vehicle (DMSO) at the doses indicated. After a 4 hr incubation, the cells were lysed and the luciferase activity in each cell lysate was determined with a luciferase assay kit (Promega) according to the manufacturer's instructions. Bioluminescence was measured by using a luminometer (Glomax Multidetection system, Promega).
To measure RA475 on-target activity in live cells, the inventors used an expression vector for the reporter gene 4UbFL in which the gene for firefly luciferase (FL) is inserted in-frame 3′ to four copies of ubiquitin (PMID: 12819780). […] Proteasome inhibition stabilizes 4UbFL and thus increases the bioluminescence signal upon addition of luciferin substrate, and this can be measured by a luminometer (for cells) or visualized by IVIS imaging (for mice).
ES2 cells stably transfected with 4UbFL expression plasmid (ES2-4UbFL) were plated in a 96 well microtiter plate and 18 hr later treated with DMSO only as a negative control, or two-fold dilution series of either Up284 or RA475. After 4 hr medium was removed and the cells were lysed using luciferase lysis buffer and bioluminescence was measured using a luminometer after the addition of luciferin substrate.

Row | SMILES | bioluminescence of 4UbFL reporter [1] | IC50 (HCC1806) | IC50 (SUM149) | IC50 (4T1) | IC50 (U251MG) | % Drug Remaining ([2]; 0 minutes) | % Drug Remaining ([2]; 30 minutes) | % Drug Remaining ([2]; 60 minutes) | % Drug Remaining ([3]; 0 minutes) | % Drug Remaining ([3]; 30 minutes) | % Drug Remaining ([3]; 60 minutes) | % Drug Remaining ([4]; NADPH Neg, 0 minutes) | % Drug Remaining ([4]; NADPH Neg, 30 minutes) | % Drug Remaining ([4]; NADPH Neg, 60 minutes) | % Drug Remaining ([4]; NADPH Pos, 0 minutes) | % Drug Remaining ([4]; NADPH Pos, 30 minutes) | % Drug Remaining ([4]; NADPH Pos, 60 minutes) | IC50 (HepG2) | bioluminescent signal of 4UbFL reporter [5]
1 | Cl.Cl.N#Cc1ccc(/C=C2/C(=O)/C(=C/c3ccc(C#N)cc3)C23CCN(C(=N)N)CC3)cc1 [RA475] | dose-dependent increase | 113 nM | 100 nM | 261 nM | 600 nM | 100% | 108% | 107% | 100% | 109% | 109% | 100% | 90% | 108% | 100% | 93% | 98% | 241 nM | significantly increased
2 | N#Cc1ccc(/C=C2/C(=O)/C(=C/c3ccc(C#N)cc3)C23CCNCC3)cc1 [Up284, reference compound] |  |  |  |  |  | 100% | 100% | 90% | 100% | 84% | 94% | 100% | 60% | 51% | 100% | 45% | 38% |  | significantly increased

Source: patent publication US12410141B2, “Anti-cancer spirocyclic-guanidine compounds and uses thereof” (The Johns Hopkins University, priority 2020, dated 2025)
